From the OPERA property sets (Mansouri et al. 2018)
Converted amounts (≈) assume the structure as drawn.

Row | SMILES | solubility (25 °C) [µM] | solubility [µM] | also measured
1 | CC(Cl)=CCl | 24300 (≈ 2700 µg/mL) | – | –
2 | O=C(NN=C1C=CC(=NO)C=C1)c1ccccc1 | – | 20.7 (≈ 5 µg/mL) | –
3 | CNc1nc(NC(C)C)nc(OC)n1 | – | – | solubility (21 °C): 17700 µM (≈ 3500 µg/mL)
4 | CCOP(=O)(OC=CCl)OCC | 46600 (≈ 10000 µg/mL) | – | –
5 | C=C(C)C(=O)Nc1ccc(Cl)c(Cl)c1 | – | 36.9 (≈ 8.5 µg/mL) | –
6 | COCCNC(=O)CSP(=S)(OC)OC | – | 73200 (≈ 20000 µg/mL) | –
7 | O=c1[nH]cc(Br)c(=O)[nH]1 | – | 4270 (≈ 815 µg/mL) | –
8 | CCCN(CCC)c1c([N+](=O)[O-])cc(C)cc1[N+](=O)[O-] | – | 1080 (≈ 304 µg/mL) | –
9 | Cc1nn(-c2ccccc2)c(C)c1N=O | 184 (≈ 37 µg/mL) | – | –
10 | C/C=C(/C)C(=O)O[C@H]1CC[C@@]2(C)[C@@H]3CC[C@H]4[C@]5(O)C[C@H](O)[C@@]6(O)[C@@H](CN7C[C@@H](C)CC[C@H]7[C@@]6(C)O)[C@]5(O)C[C@@]42O[C@]13O | 963 (≈ 570 µg/mL) | – | –
11 | c1cc[n+]2c(c1)-c1cccc[n+]1CC2 | – | – | solubility (20 °C): 376 µM
12 | CCOP(=O)(OCC)Oc1cc(C)[nH]n1 | – | 4270 (≈ 1000 µg/mL) | –
